One assay deals with T1, rat CB2 receptors (Rattus norvegicus, UniProt Q9QZN9).
T1 construct: expressed in transfected cells; host or cells: HEK293
T1 sequence (Q9QZN9 1-360): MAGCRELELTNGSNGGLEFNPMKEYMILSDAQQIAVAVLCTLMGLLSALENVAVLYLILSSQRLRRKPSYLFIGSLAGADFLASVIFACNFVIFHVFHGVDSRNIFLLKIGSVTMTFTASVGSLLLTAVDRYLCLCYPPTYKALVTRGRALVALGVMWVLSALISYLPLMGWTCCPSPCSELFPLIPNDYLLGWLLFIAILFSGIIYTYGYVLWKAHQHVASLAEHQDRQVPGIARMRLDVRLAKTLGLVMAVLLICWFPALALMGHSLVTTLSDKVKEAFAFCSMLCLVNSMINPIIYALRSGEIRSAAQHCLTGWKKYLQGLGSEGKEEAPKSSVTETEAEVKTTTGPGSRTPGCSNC
The experiment in a line: Rat CB2 radioligand binding assay ([3H]CP-55,940 competition). The gist of the method: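 Membranes from HEK293 cells stably expressing rat CB2 (20 μg/well) incubated 45 min at 30 °C with 0.5 nM [3H]CP-55,940 and five competitor concentrations in Tris/EDTA/MgCl2 buffer with 0.5 mg/mL BSA, pH 7.4. Filtration and scintillation counting; nonspecific binding with 10 μM unlabeled CP-55,940.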

In a further assay the target is T2, human CB2 receptors (Homo sapiens, UniProt P34972).
T2 construct: expressed in transfected cells; host or cells: HEK293
T2 sequence (P34972 whole entry): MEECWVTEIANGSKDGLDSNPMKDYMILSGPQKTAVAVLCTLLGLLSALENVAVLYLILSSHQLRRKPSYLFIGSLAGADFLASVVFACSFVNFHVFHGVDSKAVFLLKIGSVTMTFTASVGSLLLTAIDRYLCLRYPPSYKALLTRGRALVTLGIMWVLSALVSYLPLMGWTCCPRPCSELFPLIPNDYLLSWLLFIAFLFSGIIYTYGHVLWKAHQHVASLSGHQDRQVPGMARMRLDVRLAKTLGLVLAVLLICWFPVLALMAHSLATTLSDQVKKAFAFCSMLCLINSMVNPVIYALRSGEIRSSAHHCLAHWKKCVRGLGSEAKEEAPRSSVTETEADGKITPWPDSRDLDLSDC
The experiment in a line: Human CB2 radioligand binding assay ([3H]CP-55,940 competition). The method in brief:
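Membranes from HEK293 cells stably expressing human CB2 (5 μg/well) incubated 90 min at 30 °C with 0.5 nM [3H]CP-55,940 and five concentrations of displacer (0.01 nM–10 μM) in pH 7.4 Tris/EDTA/MgCl2 buffer with fatty acid free BSA. Bound radioactivity counted after filtration; nonspecific binding defined with 10 μM unlabeled CP-55,940.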

Like-named read-outs stand apart in the source and are kept apart here.

`COc1ccc(Cl)cc1C(=O)/N=c1\sc(C2CC2)nn1CC1CCCO1` (stereo not drawn) [Example 2, 5-chloro-N-[(2Z)-5-cyclopropyl-3-(tetrahydrofuran-2-ylmethyl)-1,3,4-thiadiazol-2(3 H)-ylidene]-2-methoxybenzamide]: the inhibition constant (Ki) on rat CB2 receptors amounted to 12 nM; on human CB2 receptors it was 17 nM.

Consider `Cn1c(C(C)(C)C)c/c(=N\C(=O)c2cc(C(F)(F)F)ccc2/C=N\OC(C)(C)C)n1C[C@H]1CCCO1` [Example 109, 2-[(Z)-(tert-butoxyimino)methyl]-N-{(3E)-5-tert-butyl-1-methyl-2-[(2R)-tetrahydrofuran-2-ylmethyl]-1,2-dihydro-3H-pyrazol-3-ylidene}-5-(trifluoromethyl)benzamide], for which the values for the inhibition constant (Ki) on rat CB2 receptors and on human CB2 receptors were 15 nM and 23 nM, respectively.

As to `Cn1c(C(C)(C)C)c/c(=N\C(=O)c2cc(C(F)(F)F)ccc2N)n1C[C@H]1CCCO1` [Example 112, 2-amino-N-{(3E)-5-tert-butyl-1-methyl-2-[(2R)-tetrahydrofuran-2-ylmethyl]-1,2-dihydro-3H-pyrazol-3-ylidene}-5-(trifluoromethyl)benzamide], the Ki was 2.4 nM on rat CB2 receptors and 3.3 nM on human CB2 receptors.

Take `CN1CC[C@H](Oc2ccc(C(F)(F)F)cc2C(=O)/N=c2\sc(C(C)(C)C)nn2C[C@H]2CCCO2)C1` [Example 97, N-[(2Z)-5-tert-butyl-3-[(2R)-tetrahydrofuran-2-ylmethyl]-1,3,4-thiadiazol-2(3 H)-ylidene]-2-{[(3S)-1-methylpyrrolidin-3-yl]oxy}-5-(trifluoromethyl)benazmide]: the inhibition constant Ki is 46 nM at rat CB2 receptors and 63 nM on human CB2 receptors.

As to `CO[C@H]1C[C@@H](COc2ccc(C(F)(F)F)cc2C(=O)/N=c2\cc(C(C)(C)C)n(C)n2C[C@H]2CCCO2)C1` [Example 18], the Ki at rat CB2 receptors was 99 nM; at human CB2 receptors, 51 nM.

Take `CN1CC[C@H](Oc2ccc(C(F)(F)F)cc2C(=O)/N=c2\oc(C(C)(C)C)cn2C[C@H]2CCCO2)C1` [Example 98, N-[(2Z)-5-tert-butyl-3-[(2R)-tetrahydrofuran-2-ylmethyl]-1,3-oxazol-2(3 H)-ylidene]-2-{[(3S)-1-methylpyrrolidin-3-yl]oxy}-5-(trifluoromethyl)benzamide]: the Ki on rat CB2 receptors stood at 88 nM; at human CB2 receptors (HEK293 membranes, 0.5 nM [3H]CP-55,940, read-out: human CB2 Ki) it was 261 nM.

For `CCOCCCOc1ccc(C(F)(F)F)cc1C(=O)/N=c1\cc(C(C)(C)C)n(C)n1C[C@H]1CCCO1` [Example 29, N-{(3E)-5-tert-butyl-1-methyl-2-[(2R)-tetrahydrofuran-2-ylmethyl]-1,2-dihydro-3H-pyrazol-3-ylidene}-2-(3-ethoxypropoxy)-5-(trifluoromethyl)benzamide], the results for the Ki at rat CB2 receptors and on human CB2 receptors were 14 nM and 4.8 nM, respectively.

Take `Cn1c(C2(C)CC2)c/c(=N\C(=O)c2cc(C(F)(F)F)ccc2OCC2(O)CCC2)n1C[C@H]1CCCO1` [Example 102, 2-[(1-hydroxycyclobutyl)methoxy]-N-{(3E)-1-methyl-5-(1-methylcyclopropyl)-2-[(2 R)-tetrahydrofuran-2-ylmethyl]-1,2-dihydro-3H-pyrazol-3-ylidene}-5-(trifluoromethyl)benzamide]: the inhibition constant (Ki) was determined as 11 nM at rat CB2 receptors and 21 nM on human CB2 receptors.

Take `C[C@@H](F)COc1ccc(C(F)(F)F)cc1C(=O)/N=c1\cc(C(C)(C)C)n(C)n1C[C@H]1CCCO1` [Example 41, N-{(3E)-5-tert-butyl-1-methyl-2-[(2R)-tetrahydrofuran-2-ylmethyl]-1,2-dihydro-3H-pyrazol-3-ylidene}-2-{[(2R)-2-fluoropropyl]oxy}-5-(trifluoromethyl)benzamide]: the inhibitory constant (Ki) stood at 18 nM at rat CB2 receptors and 132 nM at human CB2 receptors.

On to `Cn1c(C(C)(C)C)c/c(=N\C(=O)c2cc(C(F)(F)F)ccc2Oc2ccccc2)n1C[C@H]1CCCO1` [Example 133, N-{(3E)-5-tert-butyl-1-methyl-2-[(2R)-tetrahydrofuran-2-ylmethyl]-1,2-dihydro-3H-pyrazol-3-ylidene}-2-phenoxy-5-(trifluoromethyl)benzamide], for which the inhibitory constant (Ki) on rat CB2 receptors came out at 39 nM; on human CB2 receptors, 107 nM.

`CC(C)(C)c1nn(C[C@H]2CCCO2)/c(=N/C(=O)NC2CCCc3ccccc32)s1` (stereo partly drawn) [Example 73, N-[(2Z)-5-tert-butyl-3-[(2R)-tetrahydrofuran-2-ylmethyl]-1,3,4-thiadiazol-2(3 H)-ylidene]-N′-1,2,3,4-tetrahydronaphthalen-1-ylurea]: the Ki came to 8.2 nM on rat CB2 receptors and 45 nM at human CB2 receptors.

For `COc1ccc(Br)cc1C(=O)/N=c1\cc(C(C)(C)C)n(C)n1C[C@H]1CCCO1` [Example 49, 5-bromo-N-{(3E)-5-tert-butyl-1-methyl-2-[(2R)-tetrahydrofuran-2-ylmethyl]-1,2-dihydro-3H-pyrazol-3-ylidene}-2-methoxybenzamide], the Ki is 20 nM on rat CB2 receptors and 56 nM on human CB2 receptors.

With `C=Cc1ccc(C(F)(F)F)cc1C(=O)/N=c1\cc(C(C)(C)C)n(C)n1C[C@H]1CCCO1` [Example 122, N-{(3E)-5-tert-butyl-1-methyl-2-[(2R)-tetrahydrofuran-2-ylmethyl]-1,2-dihydro-3H-pyrazol-3-ylidene}-5-(trifluoromethyl)-2-vinylbenzamide], the figures for the inhibitory constant (Ki) at rat CB2 receptors and on human CB2 receptors were 1.4 nM and 8.2 nM, respectively.

`Cn1c(C(C)(C)C)c/c(=N\C(=O)c2cc(C(F)(F)F)ccc2NCCF)n1C[C@H]1CCCO1` [Example 39, N-{(3E)-5-tert-butyl-1-methyl-2-[(2R)-tetrahydrofuran-2-ylmethyl]-1,2-dihydro-3H-pyrazol-3-ylidene}-2-[(2-fluoroethyl)amino]-5-(trifluoromethyl)benzamide]: the Ki at rat CB2 receptors turned out to be 3.8 nM; on human CB2 receptors it was 8.9 nM.

`CC(C)=CCOc1ccc(C(F)(F)F)cc1C(=O)/N=c1\cc(C(C)(C)C)n(C)n1C[C@H]1CCCO1` [Example 93, N-{(3E)-5-tert-butyl-1-methyl-2-[(2R)-tetrahydrofuran-2-ylmethyl]-1,2-dihydro-3H-pyrazol-3-ylidene}-2-[(3-methylbut-2-enyl)oxy]-5-(trifluoromethyl)benzamide]: the Ki on rat CB2 receptors was 15 nM; on human CB2 receptors, 17 nM.

Consider `CC(C)CS(=O)(=O)Nc1ccc(C(F)(F)F)cc1C(=O)/N=c1\cc(C(C)(C)C)n(C)n1C[C@H]1CCCO1` [Example 125, N-{(3E)-5-tert-butyl-1-methyl-2-[(2R)-tetrahydrofuran-2-ylmethyl]-1,2-dihydro-3H-pyrazol-3-ylidene}-2-[(isobutylsulfonyl)amino]-5-(trifluoromethyl)benzamide], for which the inhibition constant Ki on rat CB2 receptors stood at 25 nM; on human CB2 receptors it was 32 nM.

On to `Cn1c(C(C)(C)C)c/c(=N\C(=O)c2cc(OCCF)cc(C(F)(F)F)c2)n1C[C@H]1CCCO1` [Example 105, N-{(3E)-5-tert-butyl-1-methyl-2-[(2R)-tetrahydrofuran-2-ylmethyl]-1,2-dihydro-3H-pyrazol-3-ylidene}-3-(2-fluoroethoxy)-5-(trifluoromethyl)benazmide], for which the Ki at rat CB2 receptors turned out to be 10 nM; on human CB2 receptors it was 69 nM.

For the molecule `C/C=C/c1ccc(C(F)(F)F)cc1C(=O)/N=c1\cc(C(C)(C)C)n(C)n1C[C@H]1CCCO1` [Example 99, N-{(3E)-5-tert-butyl-1-methyl-2-[(2R)-tetrahydrofuran-2-ylmethyl]-1,2-dihydro-3H-pyrazol-3-ylidene}-2-[(1E)-prop-1-enyl]-5-(trifluoromethyl)benazmide], the inhibition constant (Ki) came to 3.5 nM at rat CB2 receptors and 12 nM at human CB2 receptors.

The Ki is a dissociation constant, usually derived from enzyme kinetics or from competition with a known ligand.

Values taken from patent publication US8492371B2, “Compounds as cannabinoid receptor ligands” (priority 2009, dated 2013).
